How the values were obtained:
[1] = ORAC test (Oxygen Radical Absorbance Capacity); settings: fluorescence decay under peroxyl radical flow; Trolox as reference standard
Excerpt: ORAC Test The ORAC method (Oxygen Radical Absorbance Capacity) is one of the most common methods for determining radical trapping capacity against peroxyl radicals. The principle of the test is based on the measurement of the decrease in the fluorescence intensity of a fluorescent target molecule (for example fluorescein), under a constant flow of peroxyl radicals, generated by the thermal decomposition of an azo compound. The results are expressed as equivalent Trolox® micromoles, using this compound as the reference standard.

[2] = DPPH test (antioxidant power); settings: decrease of DPPH radical peak at 517 nm, spectrophotometry
Experimental: DPPH Test The DPPH test allows determining the antioxidant power by reacting the sample to be analyzed with a solution of DPPH [2,2-diphenyl-1-picrylhydrazyl, PM 394.33, […]] and analyzing the decrease in the peak at 517 of the DPPH^• radical at UV. Antioxidant compounds which are capable of transferring a hydrogen atom to the radical cause a loss of absorbance of the solution. The decrease of the DPPH^• radical peak at 517 nm is then analyzed by spectrophotometry after a predetermined incubation time. This decrease (discoloration) is proportional to the antioxidant load present in the sample. The results can also be expressed as IC50, i.e., the concentration of antioxidant compound which causes an initial 50% decrease in DPPH^•.

DPPH IC50 [2]: 7.196 ± 0.852 µg/mL
Structure (SMILES): O=C1O[C@H]([C@@H](O)CO)C(O)=C1O [Ascorbic acid]
ORAC [1]: 2900 ± 310 μmol Trolox ® equivalent/g of sample
